Patent US9422321B2, “Pyrimidine nucleoside derivatives, synthesis methods and uses thereof for preparing anti-tumor and anti-virus medicaments” (High & New Technology Research Center, Henan Academy of …, priority 2010, dated 2016)

What was measured:
VSVG/HIV-luc (NL4-3) = assay: microbe, parasite or virus in culture; format: cell-based, HIV-1; conditions: Human immunodeficiency virus 1, NL43, HEK-293T; for inhibition at 10 µM: read-out: Inhibitory activity at 10 μM; for EC50: 48 h, read-out: EC50 (μM) VSVG/HIV-luc (NL4-3)
[1] = MTT test of cytotoxicity on HepG2.2.15 cells; format: cell-based; conditions: human, read-out: CC50 (μM) (HepG2. 2. 15)
Experimental: (§1) A tube of frozen HepG2.2.15 cells taken from a liquid nitrogen tank was quickly placed into a water bath at 42° C. and shaken to thaw. DMEM complete medium (fetal bovine serum 10%, G418 380 μg/mL, Penicillin 100 U/ml, Streptomycin 100 U/ml) was used for cell culturing at conditions of 37° C. and 5% CO2. The number of cell passage in normal growing cells was once per 2-3 days.
Cytotoxicity of the compound on HepG2.2.15 cells was tested with the MTT colorimetric assay established by Mosmann. After continuous incubation for 72 h, 10 μL MTT was added to each well. Four hours later, the supernatant was discarded and 200 μL DMSO was added to each well. The OD value in each well was read using a microplate reader (measurement wavelength 490 nm, reference wavelength 630 nm). The result was recorded and the percentage inhibition of HepG2.2.15 cells by each compound was calculated:
The half toxic concentration (TC50) of the medicament on cells was calculated according to the percentage inhibition of the cell by the medicament.

HBsAg = assay: In vitro inhibition of HBV: HBsAg in HepG2.2.15 cells by ELISA; format: cell-based; conditions: Hepatitis B virus, HepG2.2.15, read-out: IC50 (μM) (HBsAg)
Experimental: as §1
(§2) The effect of a compound on HBV surface antigen s and antigen e in the cell culture was detected using a screening concentration lower than the half toxic concentration of the compound. HepG2.2.15 cells in logarithmic growth phase were selected and digested with trypsin into single cell suspension, and were seeded to a 24-well plate at a concentration of 2×10^4/mL, 1 mL per well. Media of different medicament concentrations were added, three wells for each concentration, and cells added with complete medium were set as normal control. Cell supernatants and cells at day 3, day 6 and day 9 were collected and kept under −20° C. The intracellular and extracellular expressions of e antigen and surface antigen at day 3, day 6 and day 9 were determined by ELISA.
(§3) 2.4 Effect of the Compound on HBeAg and HBsAg in HepG2.2.15 Cell Supernatant Detected by ELISA
(§4) The instructions of the kit were followed;
(§5) Measurement: OD value of each well was read from microplate reader using dual wavelength 450/630 nm.
(§6) Result determination: The Cutoff value was first calculated according to equation: COV=average OD of negative control×2.1. Then, if a sample had OD≧COV, the result was determined as positive, or if a sample had OD≦COV, the result was determined as negative.

[2] = MTS test of effects of the compound on cell survival; format: cell-based; conditions: human, 293T cells
Experimental: Then, 20 μL freshly prepared mixture of MTS/PMS was added to each well and after 4 h incubation in the incubator at 37° C. with 5% CO2, the color was developed. The light absorption (OD) of each well at wavelengths 490 nm and 650 nm (background) was detected on an enzyme linked immuno analyzer, and the survival rate of cells was calculated.

HBeAg = assay: In vitro inhibition of HBV: HBeAg in HepG2.2.15 cells by ELISA; format: cell-based; conditions: Hepatitis B virus, HepG2.2.15, read-out: IC50 (μM) (HBeAg)
Experimental: as §1, §2, §3, §4, §5, §6

SMILES | inhibition at 10 µM (VSVG/HIV-luc (NL4-3)) | CC50 at 72 h [1] | IC50 (HBsAg) | further results
CCCCCCCCNc1ccn([C@@H]2O[C@@](CO)(N=[N+]=[N-])C(O)C2F)c(=O)n1 (stereo partly drawn) [Compound 5-27] | 32.3 ± 3.2% |  |  | 
COCCCNc1ccn([C@@H]2O[C@@](CO)(N=[N+]=[N-])C(O)C2F)c(=O)n1 (stereo partly drawn) [Compound 5-23] | 10.4 ± 3.5% |  |  | 
[N-]=[N+]=N[C@]1(CO)O[C@@H](n2ccc(NCc3ccco3)nc2=O)C(F)C1O (stereo partly drawn) [Compound 5-09] |  | ≥ 25 µM | 0.19 µM | EC50 (VSVG/HIV-luc (NL4-3)): 0.7 ± 0.1 µM; CC50 at 44 h [2]: ≥ 25 µM
CC(Nc1ccn([C@@H]2O[C@@](CO)(N=[N+]=[N-])C(O)C2F)c(=O)n1)C(=O)O (stereo partly drawn) [Compound 8m] |  |  |  | EC50 (VSVG/HIV-luc (NL4-3)): 0.5 ± 0.3 µM; CC50 at 44 h [2]: ≥ 25 µM
[N-]=[N+]=N[C@]1(CO)O[C@@H](n2cc(-c3ccco3)c(=O)[nH]c2=O)C(F)C1O (stereo partly drawn) [Compound 10] | 15.1 ± 0.8% |  |  | 
[N-]=[N+]=N[C@]1(CO)O[C@@H](n2cc(C#CCCO)c(=O)[nH]c2=O)C(F)C1O (stereo partly drawn) [Compound 14] | 10 ± 5.9% |  |  | 
[N-]=[N+]=N[C@]1(CO)O[C@@H](n2ccc(NCCO)nc2=O)C(F)C1O (stereo partly drawn) [Compound 5-13] | 41.7 ± 1.8% |  |  | 
CONc1ccn([C@@H]2O[C@@](CO)(N=[N+]=[N-])C(O)C2F)c(=O)n1 (stereo partly drawn) [Compound 5-07] | 29.4 ± 5.1% | 418 µM | < 0.01 µM | IC50 (HBeAg): > 1 µM
[N-]=[N+]=N[C@]1(CO)O[C@@H](n2cc(-c3ccco3)c(N)nc2=O)C(F)C1O (stereo partly drawn) [Compound 12] | 15.8 ± 4.4% |  |  | 
CCCCCCCNc1ccn([C@@H]2O[C@@](CO)(N=[N+]=[N-])C(O)C2F)c(=O)n1 (stereo partly drawn) [Compound 5-26] | 33.9 ± 0.5% |  |  | 
[N-]=[N+]=N[C@]1(CO)O[C@@H](n2ccc(N3CCSCC3)nc2=O)C(F)C1O (stereo partly drawn) [Compound 5-29] | 11.6 ± 0.5% |  |  | 
COC(=O)[C@H](Cc1ccccc1)Nc1ccn([C@@H]2O[C@@](CO)(N=[N+]=[N-])C(O)C2F)c(=O)n1 (stereo partly drawn) [Compound 8n] |  | > 250 µM |  | EC50 (VSVG/HIV-luc (NL4-3)): 5.4 ± 3 µM; CC50 at 44 h [2]: ≥ 25 µM; IC50 (HBeAg): 4.41 µM
[N-]=[N+]=N[C@]1(CO)O[C@@H](n2cc(C#CCCO)c(N)nc2=O)C(F)C1O (stereo partly drawn) [Compound 15] | 27 ± 4.7% |  |  | 
CCCCCNc1ccn([C@@H]2O[C@@](CO)(N=[N+]=[N-])C(O)C2F)c(=O)n1 (stereo partly drawn) [Compound 5-24] | 33.8 ± 1% |  |  | 
COC(=O)[C@H](CO)Nc1ccn([C@@H]2O[C@@](CO)(N=[N+]=[N-])C(O)C2F)c(=O)n1 (stereo partly drawn) [Compound 8h] |  | > 250 µM | 0.07 µM | EC50 (VSVG/HIV-luc (NL4-3)): 6.2 ± 0.6 µM; CC50 at 44 h [2]: ≥ 25 µM
[N-]=[N+]=N[C@]1(CO)O[C@@H](n2cc3cc(CCO)oc3nc2=O)C(F)C1O (stereo partly drawn) [Compound 16] | 9.9 ± 0.8% |  |  | 
[N-]=[N+]=N[C@]1(CO)O[C@@H](n2ccc(NCc3ccccc3)nc2=O)C(F)C1O (stereo partly drawn) [Compound 5-16] | 31.3 ± 4% |  |  | 
CCNc1ccn([C@@H]2O[C@@](CO)(N=[N+]=[N-])C(O)C2F)c(=O)n1 (stereo partly drawn) [Compound 5-01] | 21.6 ± 1.3% |  |  | 
[N-]=[N+]=N[C@]1(CO)O[C@@H](n2cc(C(=O)N3CCOCC3)c(=O)[nH]c2=O)C(F)C1O (stereo partly drawn) [Compound 22] | 0% | 644 µM | 2.14 µM | 
CCN(CC)c1ccn([C@@H]2O[C@@](CO)(N=[N+]=[N-])C(O)C2F)c(=O)n1 (stereo partly drawn) [Compound 5-04] | 8.6 ± 7.5% |  |  | 
[N-]=[N+]=N[C@]1(CO)O[C@@H](n2ccc(NNC(N)=O)nc2=O)C(F)C1O (stereo partly drawn) [Compound 5-30] | 38.6 ± 5.7% |  |  | 

SMILES | inhibition at 10 µM (VSVG/HIV-luc (NL4-3)) | CC50 at 72 h [1] | IC50 (HBsAg) | further results
CCONc1ccn([C@@H]2O[C@@](CO)(N=[N+]=[N-])C(O)C2F)c(=O)n1 (stereo partly drawn) [Compound 5-08] | 15.6 ± 1.3% | 572 µM | 0.12 µM | IC50 (HBeAg): > 1 µM
[N-]=[N+]=N[C@]1(CO)O[C@@H](n2ccc(NCCCN)nc2=O)C(F)C1O (stereo partly drawn) [Compound 5-32] | 0.9 ± 0.8% |  |  | 
[N-]=[N+]=N[C@]1(CO)O[C@@H](n2ccc(N3CCCC3)nc2=O)C(F)C1O (stereo partly drawn) [Compound 5-05] | 31.6 ± 3.6% |  |  | 
[N-]=[N+]=N[C@]1(CO)O[C@@H](n2ccc(N3CCOCC3)nc2=O)C(F)C1O (stereo partly drawn) [Compound 5-12] | 3 ± 6.9% | 700 µM | < 0.1 µM | IC50 (HBeAg): > 1 µM
CON(C)c1ccn([C@@H]2O[C@@](CO)(N=[N+]=[N-])C(O)C2F)c(=O)n1 (stereo partly drawn) [Compound 5-06] | 32.2 ± 10.5% |  |  | 
COC(=O)[C@@H]1CCCN1c1ccn([C@@H]2O[C@@](CO)(N=[N+]=[N-])C(O)C2F)c(=O)n1 (stereo partly drawn) [Compound 7L] | 5.1 ± 4.6% | 596 µM | 0.02 µM | 
[N-]=[N+]=N[C@]1(CO)O[C@@H](n2ccc(NCC(O)CO)nc2=O)C(F)C1O (stereo partly drawn) [Compound 5-18] | 17.8 ± 0.6% |  |  | 
[N-]=[N+]=N[C@]1(CO)O[C@@H](n2ccc(NCC(O)CN)nc2=O)C(F)C1O (stereo partly drawn) [Compound 5-33] | 14.1 ± 2.2% |  |  | 
[N-]=[N+]=N[C@]1(CO)O[C@@H](n2ccc(NCCc3c[nH]c4ccccc34)nc2=O)C(F)C1O (stereo partly drawn) [Compound 5-20] |  | > 250 µM |  | EC50 (VSVG/HIV-luc (NL4-3)): 5.8 ± 2.6 µM; CC50 at 44 h [2]: ≥ 25 µM
Cc1cn([C@H]2C[C@H](N=[N+]=[N-])[C@@H](CO)O2)c(=O)[nH]c1=O [Zidovudine, reference compound] |  |  |  | EC50 (VSVG/HIV-luc (NL4-3)): 0.084 ± 0.0026 µM
[N-]=[N+]=N[C@]1(CO)O[C@@H](n2ccc(NC3CCCCC3)nc2=O)C(F)C1O (stereo partly drawn) [Compound 5-10] | 1.9 ± 2.2% | 654 µM | < 0.1 µM | 
[N-]=[N+]=N[C@]1(CO)O[C@@H](n2ccc(NN3CCOCC3)nc2=O)C(F)C1O (stereo partly drawn) [Compound 5-22] | 14.2 ± 5.1% |  |  | 
CCCCCCNc1ccn([C@@H]2O[C@@](CO)(N=[N+]=[N-])C(O)C2F)c(=O)n1 (stereo partly drawn) [Compound 5-25] | 35 ± 1.7% |  |  | 
CNNc1ccn([C@@H]2O[C@@](CO)(N=[N+]=[N-])C(O)C2F)c(=O)n1 (stereo partly drawn) [Compound 5-31] | 22.8 ± 3.5% |  |  | 
COC(=O)[C@H](Nc1ccn([C@@H]2O[C@@](CO)(N=[N+]=[N-])C(O)C2F)c(=O)n1)C(C)C (stereo partly drawn) [Compound 8f] |  | > 250 µM | 0.26 µM | EC50 (VSVG/HIV-luc (NL4-3)): 4.7 ± 0.1 µM; CC50 at 44 h [2]: ≥ 25 µM
[N-]=[N+]=N[C@]1(CO)O[C@@H](n2cc(C(=O)N3CCSCC3)c(=O)[nH]c2=O)C(F)C1O (stereo partly drawn) [Compound 27] | 4.8 ± 1.8% | 585 µM | < 0.1 µM | 
[N-]=[N+]=N[C@]1(CO)O[C@@H](n2cc(C(=O)N3CCCC3)c(=O)[nH]c2=O)C(F)C1O (stereo partly drawn) [Compound 25] | 16.8 ± 1.2% |  |  | 
[N-]=[N+]=N[C@]1(CO)O[C@@H](n2ccc(NCCc3ccc(O)cc3)nc2=O)C(F)C1O (stereo partly drawn) [Compound 5-03] |  | 834 µM | < 0.1 µM | EC50 (VSVG/HIV-luc (NL4-3)): 5.7 ± 0.2 µM; CC50 at 44 h [2]: ≥ 25 µM
COC(=O)[C@H](CCSC)Nc1ccn([C@@H]2O[C@@](CO)(N=[N+]=[N-])C(O)C2F)c(=O)n1 (stereo partly drawn) [Compound 8g] |  | > 250 µM | 19.6 µM | EC50 (VSVG/HIV-luc (NL4-3)): 8.1 ± 5.5 µM; CC50 at 44 h [2]: ≥ 25 µM
[N-]=[N+]=N[C@]1(CO)O[C@@H](n2ccc(NCCCO)nc2=O)C(F)C1O (stereo partly drawn) [Compound 5-14] | 6.3 ± 3.2% | 668 µM | 2.46 µM | 
